# Assay results: the RepoRT retention time repository (doi:10.1016/j.chroma.2019.01.023)
# Experiment: HILIC, Merck SeQuant ZIC-pHILIC, 150 × 2.1 mm, 5 µm, 40 °C, 0.3 mL/min, estimated dead time 1.1 min; A: acetonitrile; B: water + 2.8 mM ammonium formate, pH 9; gradient (min/%B) 0/5 1/5 10/51 13/51 13.1/5 20/5
# Conditions: stereoisomer not certain
row,LC retention time [min],Structure (SMILES)
1,2.13,C=CC(=O)[O-] [2-PROPENOATE]
2,9.96,CC(O)(CC(=O)O)CC(=O)SCCNC(=O)CCNC(=O)C(O)C(C)(C)COP(=O)(O)OP(=O)(O)OCC1OC(n2cnc3c(N)ncnc32)C(O)C1OP(=O)(O)O (stereo unspecified) [3-HYDROXY-3-METHYLGLUTARYL-COA]
3,7.95,CC(C)=CC(=O)SCCNC(=O)CCNC(=O)C(O)C(C)(C)COP(=O)(O)OP(=O)(O)OCC1OC(n2cnc3c(N)ncnc32)C(O)C1OP(=O)(O)O (stereo unspecified) [3-METHYLCROTONYL-COA]
4,10.1,O=C(O)C(O)COP(=O)(O)O (stereo unspecified) [3-PHOSPHOGLYCERATE]
5,8.64,NC(CS(=O)O)C(=O)O (stereo unspecified) [3-SULFINOALANINE]
6,9.02,N[C@H](C(=O)O)c1ccc(O)cc1 [4-HYDROXY-L-PHENYLGLYCINE]
7,9.28,NCC(=O)CCC(=O)O [5-AMINOLEVULINATE]
8,10.3,O=C(O)C(O)C(O)C(O)C(O)COP(=O)(O)O (stereo unspecified) [6-PHOSPHOGLUCONATE]
9,9.46,Nc1ncnc2c1ncn2C1OC(COP(=O)(O)OP(=O)(O)O)C(O)C1O (stereo unspecified) [ADENOSINE 5'-DIPHOSPHATE]
10,9.14,Nc1ncnc2c1ncn2C1OC(COP(=O)(O)OP(=O)(O)OCC2OC(O)C(O)C2O)C(O)C1O (stereo unspecified) [ADENOSINE DIPHOSPHATE RIBOSE]
11,9.12,Nc1ncnc2c1ncn2C1OC(COP(=O)(O)OP(=O)(O)OC2OC(CO)C(O)C(O)C2O)C(O)C1O (stereo unspecified) [ADP-GLUCOSE]
12,8.49,O=C1OC(C(O)CO)C(O)=C1O (stereo unspecified) [ASCORBATE]
13,1.41,O=C(O)c1ccccc1 [BENZOATE]
14,8.57,O=P(O)(O)OC(CO)CO [BETA-GLYCEROPHOSPHATE]
15,9.33,NCCOP(=O)(O)OP(=O)(O)OCC1OC(n2ccc(N)nc2=O)C(O)C1O (stereo unspecified) [CDP-ETHANOLAMINE]
16,9.12,CC(C)(COP(=O)(O)OP(=O)(O)OCC1OC(n2cnc3c(N)ncnc32)C(O)C1OP(=O)(O)O)C(O)C(=O)NCCC(=O)NCCS (stereo unspecified) [COENZYME A]
17,8.8,NC(CS)C(=O)NCC(=O)O (stereo unspecified) [CYS-GLY]
18,10.3,NC(CCSCC(N)C(=O)O)C(=O)O (stereo unspecified) [CYSTATHIONINE]
19,10.2,NC(CS)C(=O)O (stereo unspecified) [CYSTEINE]
20,10.3,NC(CSSCC(N)C(=O)O)C(=O)O (stereo unspecified) [CYSTINE]
21,8.06,"Nc1ccn(C2OC(CO)C3OP(=O)(O)OC32)c(=O)n1 (stereo unspecified) [CYTIDINE 2',3'-CYCLIC PHOSPHATE]"
22,10.2,Nc1ccn(C2OC(COP(=O)(O)OP(=O)(O)O)C(O)C2O)c(=O)n1 (stereo unspecified) [CYTIDINE DIPHOSPHATE]
23,11.1,Nc1ccn(C2OC(COP(=O)(O)OP(=O)(O)OP(=O)(O)O)C(O)C2O)c(=O)n1 (stereo unspecified) [CYTIDINE TRIPHOSPHATE]
24,5.74,C[C@@H](N)C(=O)O [D-ALANINE]
25,9.19,O=P(O)(O)OCC1OC(O)C(O)C1O [D-RIBOSE 5-PHOSPHATE]

row,LC retention time [min],Structure (SMILES)
1,10.2,Nc1ncnc2c1ncn2C1CC(O)C(COP(=O)(O)OP(=O)(O)OP(=O)(O)O)O1 (stereo unspecified) [DEOXYADENOSINE TRIPHOSPHATE]
2,9.8,Nc1ccn(C2CC(O)C(COP(=O)([O-])OP(=O)([O-])[O-])O2)c(=O)n1 (stereo unspecified) [DEOXYCYTIDINE-DIPHOSPHATE]
3,10.5,O=c1ccn(C2CC(O)C(COP(=O)(O)OP(=O)(O)OP(=O)(O)O)O2)c(=O)[nH]1 (stereo unspecified) [DEOXYURIDINE TRIPHOSPHATE]
4,10.2,Nc1nc2c(ncn2C2CC(O)C(COP(=O)(O)OP(=O)(O)O)O2)c(=O)[nH]1 (stereo unspecified) [DGDP]
5,11.1,Nc1nc2c(ncn2C2CC(O)C(COP(=O)(O)OP(=O)(O)OP(=O)(O)O)O2)c(=O)[nH]1 (stereo unspecified) [DGTP]
6,10.5,NC(CCCC(N)C(=O)O)C(=O)O (stereo unspecified) [DIAMINOPIMELATE]
7,8.81,Nc1nc2c(c(=O)[nH]1)N=C(CNc1ccc(C(=O)NC(CCC(=O)O)C(=O)O)cc1)CN2 (stereo unspecified) [DIHYDROFOLATE]
8,2.03,CNCC(O)c1ccc(O)c(O)c1 (stereo unspecified) [EPINEPHRINE]
9,9.23,NCCOP(=O)(O)O [ETHANOLAMINE PHOSPHATE]
10,9.3,O=C(CO)C(O)C(O)C(O)COP(=O)(O)O (stereo unspecified) [FRUCTOSE 6-PHOSPHATE]
11,10.9,O=P(O)(O)OCC1OC(O)(COP(=O)(O)O)C(O)C1O (stereo unspecified) [FRUCTOSE BISPHOSPHATE]
12,8.32,CC(C)=CCCC(C)=CCOP(=O)(O)OP(=O)(O)O [GERANYL-PP]
13,8.5,O=C(O)C(O)C(O)C(O)C(O)CO (stereo unspecified) [GLUCONATE]
14,9.91,NC(C(=O)O)C(O)C(O)C(O)CO (stereo unspecified) [GLUCOSAMINATE]
15,10.2,NC1C(O)OC(COP(=O)(O)O)C(O)C1O (stereo unspecified) [GLUCOSAMINE 6-PHOSPHATE]
16,8.69,NC(CCC(=O)O)C(=O)O (stereo unspecified) [GLUTAMATE]
17,6.24,O=CC(O)COP(=O)(O)O (stereo unspecified) [GLYCERALDEHYDE 3-PHOSPHATE]
18,7.98,O=C(O)C(O)CO (stereo unspecified) [GLYCERATE]
19,8.79,O=P(O)(O)OCC(O)CO (stereo unspecified) [GLYCEROL 3-PHOSPHATE]
20,10.2,Nc1nc2c(ncn2C2OC(COP(=O)(O)OP(=O)(O)OC3OC(CO)C(O)C(O)C3O)C(O)C2O)c(=O)[nH]1 (stereo unspecified) [GUANOSINE DIPHOSPHATE MANNOSE]
21,10.5,Nc1nc2c(ncn2C2OC(COP(=O)(O)OP(=O)(O)O)C(O)C2O)c(=O)[nH]1 (stereo unspecified) [GUANOSINE DIPHOSPHATE]
22,11.5,Nc1nc2c(ncn2C2OC(COP(=O)(O)OP(=O)(O)OP(=O)(O)O)C(O)C2O)c(=O)[nH]1 (stereo unspecified) [GUANOSINE TRIPHOSPHATE]
23,9.91,NC(CCS)C(=O)O (stereo unspecified) [HOMOCYSTEINE]
24,9.92,NC(CCSSCCC(N)C(=O)O)C(=O)O (stereo unspecified) [HOMOCYSTINE]
25,8.8,NCCS(=O)O [HYPOTAURINE]

row,LC retention time [min],Structure (SMILES)
1,5.17,O=C(O)C(=O)Cc1c[nH]c2ccccc12 [INDOLE-3-PYRUVATE]
2,9.98,O=c1[nH]cnc2c1ncn2C1OC(COP(=O)([O-])OP(=O)([O-])O)C(O)C1O (stereo unspecified) [INOSINE 5'-DIPHOSPHATE]
3,11,O=c1[nH]cnc2c1ncn2C1OC(COP(=O)(O)OP(=O)(O)OP(=O)(O)O)C(O)C1O (stereo unspecified) [INOSINE TRIPHOSPHATE]
4,10.5,O=C(O)CC(C(=O)O)C(O)C(=O)O (stereo unspecified) [ISOCITRATE]
5,8.52,C=C(C)CCOP(=O)(O)OP(=O)(O)O [ISOPENTENYL PYROPHOSPHATE]
6,1.54,CC(O)C(=O)O (stereo unspecified) [LACTATE]
7,1.47,COC(=O)c1ccc(O)c(OC)c1 [METHYL VANILLATE]
8,6.48,CCOC(=O)CC(=O)[O-] [MONOETHYLMALONATE]
9,2.02,"CN(C)C(N)=NCCCC(N)C(=O)O (stereo unspecified) [N,N-DIMETHYL-ARGININE]"
10,8.33,CC(=O)NC1C(O)CC(O)(C(=O)O)OC1C(O)C(O)CO (stereo unspecified) [N-ACETYLNEURAMINATE]
11,8.76,CC(=O)NC(CCCCN)C(=O)O (stereo not drawn) [N-ALPHA-ACETYLLYSINE]
12,10.1,NC(=O)C1=CN(C2OC(COP(=O)(O)OP(=O)(O)OCC3OC(n4cnc5c(N)ncnc54)C(OP(=O)(O)O)C3O)C(O)C2O)C=CC1 (stereo unspecified) [NADPH]
13,5.16,CCCCCCCCC(=O)[O-] [NONANOATE]
14,8.87,O=C(O)CCCC(=O)C(=O)O [OXOADIPATE]
15,9.21,O=C(O)CCC(=O)C(=O)O [OXOGLUTARATE]
16,8.8,OCC1OC(OCC2OC(O)(CO)C(O)C2O)C(O)C(O)C1O (stereo unspecified) [PALATINOSE]
17,6.41,O=C([O-])c1ccccn1 [PICOLINATE]
18,8.1,O=C(O)C1(O)CC(O)C(O)C(O)C1 (stereo unspecified) [QUINATE]
19,9.56,OCC1OC(OCC2OC(OC3(CO)OC(CO)C(O)C3O)C(O)C(O)C2O)C(O)C(O)C1O (stereo unspecified) [RAFFINOSE]
20,1.91,O=C(O)c1ccccc1O [SALICYLATE]
21,10.1,OCC1OC(OCC2OC(OCC3OC(OC4(CO)OC(CO)C(O)C4O)C(O)C(O)C3O)C(O)C(O)C2O)C(O)C(O)C1O (stereo unspecified) [STACHYOSE]
22,10.5,O=C(O)C=C(CC(=O)O)C(=O)O [TRANS-ACONITATE]
23,11,O=C(O)C1OC(OP(=O)(O)OP(=O)(O)OCC2OC(n3ccc(=O)[nH]c3=O)C(O)C2O)C(O)C(O)C1O (stereo unspecified) [URIDINE DIPHOSPHATE GLUCURONIC ACID]
24,8.67,O=c1ccn(C2OC(COP(=O)(O)O)C(O)C2O)c(=O)[nH]1 (stereo unspecified) [URIDINE MONOPHOSPHATE]
25,8.34,OC1COC(O)C(O)C1O (stereo unspecified) [XYLOSE]

row,Structure (SMILES),LC retention time [min]
1,NCCP(=O)(O)O [(2-AMINOETHYL)PHOSPHONATE],9.6
2,CS(=N)(=O)CCC(N)C(=O)O (stereo unspecified) [METHIONINE SULFOXIMINE],9.03

# Experiment: HILIC, Waters ACQUITY UPLC BEH Amide, 150 × 2.1 mm, 1.7 µm, 40 °C, 0.5 mL/min, estimated dead time 0.66 min; A: 5% water + 95% acetonitrile; B: 70% water + 30% acetonitrile + 10 mM ammonium formate, pH 6.5; gradient (min/%B) 0/0 2/0 20/70 23/70 24/0 31/0
# Conditions: stereoisomer not certain
row,LC retention time [min],Structure (SMILES)
1,0.99,CC12CCC(O)CC1CCC1C2C(O)CC2(C)C1CCC2(O)C(=O)CO (stereo unspecified)
2,8.27,C[n+]1cccc(C(N)=O)c1 [1-METHYLNICOTINAMIDE]
3,1.56,O=c1cccc[nH]1 [2-HYDROXYPYRIDINE]
4,1.37,CC(O)CC(=O)[O-] (stereo unspecified) [3-HYDROXYBUTANOATE]
5,0.84,CC1C(=O)Nc2ccccc21 (stereo unspecified) [3-METHYL-2-OXINDOLE]
6,5.66,Cn1cnc(=N)c2[nH]cnc21 [3-METHYLADENINE]
7,10.4,NCCCCC(=O)O [5-AMINOPENTANOATE]

row,Structure (SMILES),LC retention time [min]
1,COc1cc(CCN)ccc1O [3-METHOXYTYRAMINE],0.84
2,Cn1cncc1CCN [3-METHYLHISTAMINE],9.57
